Source: patent US6525001B1, “Substituted pyrimidine and pyridine herbicides” (Mid-American Commercialization Corporation, priority 1997, dated 2003)

Legend:
Experiment in all cases: Test B pre-/postemergence
Assay type in all cases: in vivo
Set-up in all cases: key: 0 is no effect; 10 is complete control
[1] = tested on: sugar beet (Beta vulgaris)
How it was run: (§1)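 Compounds in a surfactant-containing, non-phytotoxic solvent blend are applied to freshly planted seed (preemergence) and, concurrently, to seedlings of 2 to 18 cm at 1–4 leaves (postemergence). Plants stay in the greenhouse twelve to sixteen days and are then scored visually from 0 (no effect) to 10 (complete control).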

[2] = tested on: purple nutsedge (Cyperus rotundus)
How it was run: as §1

[3] = tested on: momingglory (Ipomoea hederacea)
How it was run: as §1

[4] = tested on: velvetleaf (Abutilon theophrasti)
How it was run: as §1

[5] = tested on: bedstraw (Galium aparine)
How it was run: as §1

[6] = tested on: crabgrass (Digitaria sanguinalis)
How it was run: as §1

[7] = tested on: cocklebur (Xanthium strumarium)
How it was run: as §1

wild oat (Avena fatua) = tested on: wild oat (Avena fatua)
How it was run: as §1

corn (Zea mays) = tested on: corn (Zea mays)
How it was run: as §1

[8] = tested on: wheat (Triticum aestivum)
How it was run: as §1

[9] = tested on: blackgrass (Alopecurus myosuroides)
How it was run: as §1

[10] = tested on: broadleaf signalgrass (Brachiaria decumbens)
How it was run: as §1

[11] = tested on: giant foxtail (Setaria faberii)
How it was run: as §1

[12] = tested on: pigweed (Amaranthus retroflexus)
How it was run: as §1

[13] = Preemergence, Rate 62 g/ha, scale of 0 to 10

Cc1cnc(-c2ccc(C(F)(F)F)cc2)nc1C(=O)c1ccc(C(F)(F)F)cc1 [Compound 74]
Plant response rating, Sugarbeets [1, 13]: 0
Sugarbeets plant response rating ([1]; Rate 62 g/ha, Postemergence): 1
Sugarbeets plant response rating ([1]; Rate 125 g/ha, Postemergence): 2
Plant response rating, Sugarbeets ([1]; Rate 125 g/ha, Preemergence): 0
Plant response rating, Sugarbeets ([1]; Rate 250 g/ha, Postemergence): 6
Plant response rating, Sugarbeets ([1]; Rate 250 g/ha, Preemergence): 0
Plant response rating, Sugarbeets ([1]; Rate 500 g/ha, Postemergence): 7
Plant response rating, Sugarbeets ([1]; Rate 500 g/ha, Preemergence): 0
Plant response rating, Nutsedge [2, 13]: 0
Nutsedge plant response rating ([2]; Rate 62 g/ha, Postemergence): 0
Nutsedge plant response rating ([2]; Rate 125 g/ha, Postemergence): 0
Plant response rating, Nutsedge ([2]; Rate 125 g/ha, Preemergence): 0
Plant response rating, Nutsedge ([2]; Rate 250 g/ha, Postemergence): 0
Plant response rating, Nutsedge ([2]; Rate 250 g/ha, Preemergence): 0
Plant response rating, Nutsedge ([2]; Rate 500 g/ha, Preemergence): 0
Plant response rating, Morningglory [3, 13]: 0
Morningglory plant response rating ([3]; Rate 62 g/ha, Postemergence): 1
Morningglory plant response rating ([3]; Rate 125 g/ha, Postemergence): 1
Plant response rating, Morningglory ([3]; Rate 125 g/ha, Preemergence): 0
Plant response rating, Morningglory ([3]; Rate 250 g/ha, Postemergence): 7
Plant response rating, Morningglory ([3]; Rate 250 g/ha, Preemergence): 0
Plant response rating, Morningglory ([3]; Rate 500 g/ha, Postemergence): 7
Plant response rating, Morningglory ([3]; Rate 500 g/ha, Preemergence): 0
Plant response rating, Velvetleaf [4, 13]: 0
Velvetleaf plant response rating ([4]; Rate 62 g/ha, Postemergence): 1
Velvetleaf plant response rating ([4]; Rate 125 g/ha, Postemergence): 1
Plant response rating, Velvetleaf ([4]; Rate 125 g/ha, Preemergence): 0
Plant response rating, Velvetleaf ([4]; Rate 250 g/ha, Postemergence): 2
Plant response rating, Velvetleaf ([4]; Rate 250 g/ha, Preemergence): 0
Plant response rating, Velvetleaf ([4]; Rate 500 g/ha, Postemergence): 2
Plant response rating, Velvetleaf ([4]; Rate 500 g/ha, Preemergence): 0
Plant response rating, Bedstraw [5, 13]: 0
Bedstraw plant response rating ([5]; Rate 62 g/ha, Postemergence): 1
Bedstraw plant response rating ([5]; Rate 125 g/ha, Postemergence): 1
Plant response rating, Bedstraw ([5]; Rate 125 g/ha, Preemergence): 0
Plant response rating, Bedstraw ([5]; Rate 250 g/ha, Postemergence): 2
Plant response rating, Bedstraw ([5]; Rate 250 g/ha, Preemergence): 0
Plant response rating, Bedstraw ([5]; Rate 500 g/ha, Postemergence): 6
Plant response rating, Bedstraw ([5]; Rate 500 g/ha, Preemergence): 0
Plant response rating, Crabgrass [6, 13]: 0
Crabgrass plant response rating ([6]; Rate 62 g/ha, Postemergence): 0
Crabgrass plant response rating ([6]; Rate 125 g/ha, Postemergence): 0
Plant response rating, Crabgrass ([6]; Rate 125 g/ha, Preemergence): 0
Plant response rating, Crabgrass ([6]; Rate 250 g/ha, Postemergence): 1
Plant response rating, Crabgrass ([6]; Rate 250 g/ha, Preemergence): 0
Plant response rating, Crabgrass ([6]; Rate 500 g/ha, Postemergence): 3
Plant response rating, Crabgrass ([6]; Rate 500 g/ha, Preemergence): 1
Plant response rating, Cocklebur [7, 13]: 0
Cocklebur plant response rating ([7]; Rate 62 g/ha, Postemergence): 1
Cocklebur plant response rating ([7]; Rate 125 g/ha, Postemergence): 5
Plant response rating, Cocklebur ([7]; Rate 125 g/ha, Preemergence): 0
Plant response rating, Cocklebur ([7]; Rate 250 g/ha, Postemergence): 5
Plant response rating, Cocklebur ([7]; Rate 250 g/ha, Preemergence): 0
Plant response rating, Cocklebur ([7]; Rate 500 g/ha, Postemergence): 5
Plant response rating, Cocklebur ([7]; Rate 500 g/ha, Preemergence): 0
Plant response rating, Wild oats (wild oat (Avena fatua); [13]): 0
Wild oats plant response rating (wild oat (Avena fatua); Rate 62 g/ha, Postemergence): 1
Wild oats plant response rating (wild oat (Avena fatua); Rate 125 g/ha, Postemergence): 1
Plant response rating, Wild oats (wild oat (Avena fatua); Rate 125 g/ha, Preemergence): 0
Plant response rating, Wild oats (wild oat (Avena fatua); Rate 250 g/ha, Postemergence): 1
Plant response rating, Wild oats (wild oat (Avena fatua); Rate 250 g/ha, Preemergence): 0
Plant response rating, Wild oats (wild oat (Avena fatua); Rate 500 g/ha, Postemergence): 1
Plant response rating, Wild oats (wild oat (Avena fatua); Rate 500 g/ha, Preemergence): 0
Plant response rating, Corn (corn (Zea mays); [13]): 0
Corn plant response rating (corn (Zea mays); Rate 62 g/ha, Postemergence): 1
Corn plant response rating (corn (Zea mays); Rate 125 g/ha, Postemergence): 1
Plant response rating, Corn (corn (Zea mays); Rate 125 g/ha, Preemergence): 0
Plant response rating, Corn (corn (Zea mays); Rate 250 g/ha, Postemergence): 1
Plant response rating, Corn (corn (Zea mays); Rate 250 g/ha, Preemergence): 0
Plant response rating, Corn (corn (Zea mays); Rate 500 g/ha, Postemergence): 1
Plant response rating, Corn (corn (Zea mays); Rate 500 g/ha, Preemergence): 0
Plant response rating, Wheat [8, 13]: 0
Wheat plant response rating ([8]; Rate 62 g/ha, Postemergence): 1
Wheat plant response rating ([8]; Rate 125 g/ha, Postemergence): 1
Plant response rating, Wheat ([8]; Rate 125 g/ha, Preemergence): 0
Plant response rating, Wheat ([8]; Rate 250 g/ha, Postemergence): 1
Plant response rating, Wheat ([8]; Rate 250 g/ha, Preemergence): 0
Plant response rating, Wheat ([8]; Rate 500 g/ha, Postemergence): 2
Plant response rating, Wheat ([8]; Rate 500 g/ha, Preemergence): 0
Plant response rating, Blackgrass [9, 13]: 0
Blackgrass plant response rating ([9]; Rate 62 g/ha, Postemergence): 0
Blackgrass plant response rating ([9]; Rate 125 g/ha, Postemergence): 0
Plant response rating, Blackgrass ([9]; Rate 125 g/ha, Preemergence): 0
Plant response rating, Blackgrass ([9]; Rate 250 g/ha, Postemergence): 0
Plant response rating, Blackgrass ([9]; Rate 250 g/ha, Preemergence): 0
Plant response rating, Blackgrass ([9]; Rate 500 g/ha, Postemergence): 1
Plant response rating, Blackgrass ([9]; Rate 500 g/ha, Preemergence): 0
B. signalgrass plant response rating ([10]; Rate 62 g/ha, Postemergence): 1
B. signalgrass plant response rating ([10]; Rate 62 g/ha, Preemergence): 0
B. signalgrass plant response rating ([10]; Rate 125 g/ha, Postemergence): 1
Plant response rating, B. signalgrass ([10]; Rate 125 g/ha, Preemergence): 0
Plant response rating, B. signalgrass ([10]; Rate 250 g/ha, Postemergence): 1
Plant response rating, B. signalgrass ([10]; Rate 250 g/ha, Preemergence): 0
Plant response rating, B. signalgrass ([10]; Rate 500 g/ha, Postemergence): 2
Plant response rating, B. signalgrass ([10]; Rate 500 g/ha, Preemergence): 0
Plant response rating, Giant foxtail [11, 13]: 0
Giant foxtail plant response rating ([11]; Rate 62 g/ha, Postemergence): 0
Giant foxtail plant response rating ([11]; Rate 125 g/ha, Postemergence): 0
Plant response rating, Giant foxtail ([11]; Rate 125 g/ha, Preemergence): 0
Plant response rating, Giant foxtail ([11]; Rate 250 g/ha, Postemergence): 1
Plant response rating, Giant foxtail ([11]; Rate 250 g/ha, Preemergence): 0
Plant response rating, Giant foxtail ([11]; Rate 500 g/ha, Postemergence): 1
Plant response rating, Giant foxtail ([11]; Rate 500 g/ha, Preemergence): 0
Plant response rating, Redroot pigweed [12, 13]: 0
Redroot pigweed plant response rating ([12]; Rate 62 g/ha, Postemergence): 2
Redroot pigweed plant response rating ([12]; Rate 125 g/ha, Postemergence): 2
Plant response rating, Redroot pigweed ([12]; Rate 125 g/ha, Preemergence): 0
Plant response rating, Redroot pigweed ([12]; Rate 250 g/ha, Postemergence): 8
Plant response rating, Redroot pigweed ([12]; Rate 250 g/ha, Preemergence): 0
Plant response rating, Redroot pigweed ([12]; Rate 500 g/ha, Postemergence): 8
Plant response rating, Redroot pigweed ([12]; Rate 500 g/ha, Preemergence): 0
